{"source": "patent US10278943B2", "about": "“Method of treating hyperglycemia” (Center Laboratories, Inc., priority 2016, dated 2019)", "assay_type_in_all_cases": "in vivo", "key": {"NIDDM mice [1]": {"system": "NIDDM mice", "assay": "Fasting blood glucose level in NIDDM (db/db) mice, 44 days treatment (Example 1.2)", "method": "(§1) NIDDM mice and db/m+ mice (the sham control) were acclimated at least one week and then grouped for treatment when the average blood glucose value was ≥350 mg/dl after 6-hr fasting. […] Blood glucose and glycated haemoglobin (HbA1c) levels were measured on designated days after 6-hr fasting. Body weight of each test animal was also measured during the study period.\nFor comparison, a group of 5 db/m+ (C57BLKS/J Lar-m+/+Lepr^db) mice were used as the sham control. Blood glucose levels were measured on day 0 (before treatment), and on days 15, 30, and 45 in the 6-hr fasting animals. Results are illustrated in FIG. 2."}, "[2]": {"system": "STZ-induced diabetic mice", "assay": "Blood glucose level in STZ-induced diabetic mice (Example 1.1)", "method": "Wide-type male C57BL/6 mice were rendered diabetic by multiple intraperitoneal injection of streptozotocin (STZ, 40 mg/Kg/day for 5 days, day 1 to day 5). […] For animals treated with insulin, insulin was administered subcutaneously 90 minutes before blood glucose measurement. Non-fasting blood glucose level was measured on days 6, 15, and 25, whereas fasting blood glucose (i.e., blood glucose level after fasting for 12 hrs fasting) was measured on days 40 and 50.\nResults are illustrated in FIG. 1."}, "NIDDM mice [3]": {"system": "NIDDM mice", "assay": "Glycated haemoglobin (HbA1c) level in NIDDM (db/db) mice, R-VPM and/or metformin (Example 2.2)", "conditions": "for C = B − A, HbA1c level minus vehicle / HbA1c level relative to day 0 = 100: metformin 300 mg/Kg once daily", "method": "as §1\n(§2) For comparison, a group of 8 db/m+ (C57BLKS/J Lar-m+/+Lepr^db) mice were used as the sham control. Levels of blood glucose and HbA1c were respectively measured on day 0 (before treatment), and on day 15, 29 and 43 in the 6-hr fasting animals.\nAnother common indicator, glycated haemolglobin (HbA1c), which reflects average blood glucose levels over a duration was also measured in the present study. HbA1c develops when haemolglobin, a protein within red blood cells that carries oxygen throughout the body joins with glucose in the blood and becomes “glycated.” Since red blood cells in a human body survive for about 8-12 weeks before renewal, thus, the level of HbA1c gives an overall picture of average blood sugar levels over such period."}, "NIDDM mice [4]": {"system": "NIDDM mice", "assay": "Fasting blood glucose level in NIDDM (db/db) mice, R-VPM and/or metformin, 42 days (Example 2.1)", "conditions": "for blood glucose level, % of day 0: 6-hr fasting; for effect on blood glucose level on its own: low dose, 15 mg/Kg, HCl; for reduction of blood glucose level compared with the vehicle group: metformin 300 mg/Kg", "method": "as §1, §2\nIn Table 1, blood glucose level in each treatment group was expressed as % of the control, which was the blood glucose level on day 0 and was taken to be 100%."}, "[5]": {"conditions": "metformin 300 mg/Kg once daily, day 15"}, "[6]": {"conditions": "metformin 300 mg/Kg once daily, day 29"}, "[7]": {"conditions": "metformin 300 mg/Kg once daily, day 43"}}}
{"compound": "COc1ccc(CCN(C)CCCC(C#N)(c2ccc(OC)c(OC)c2)C(C)C)cc1OC", "note": "(racemic) [VPM, 2-(3,4-dimethoxyphenyl)-5-[2-(3,4-dimethoxyphenyl)ethylmethylamino]-2-propan-2-ylpentanenitrile, reference compound]", "values": [{"measurement": "effect on reduction of fasting blood glucose level (FIG. 2)", "setting": "NIDDM mice [1]; 30 mg/Kg, bid", "value": "neither racemic verapamil HCl (30 mg/Kg, bid) nor (S)-(−)-verapamil HCl, possessed any effect"}, {"measurement": "effect on fasting or non-fasting blood glucose level (FIG. 1)", "setting": "[2]; 25 or 35 mg/Kg, bid, oral", "value": "had no effects"}]}
{"compound": "COc1ccc(CCN(C)CCC[C@](C#N)(c2ccc(OC)c(OC)c2)C(C)C)cc1OC.Cl", "note": "[R-VMP, (R)-(+)-verapamil HCl]", "values": [{"measurement": "effect on HbA1c level (FIG. 4)", "setting": "NIDDM mice [3]; 15 mg/Kg, bid", "value": "no effect"}, {"measurement": "effect on HbA1c level (FIG. 4)", "setting": "NIDDM mice [3]; 30 mg/Kg, bid", "value": "mild reduction"}, {"measurement": "E = D − A, HbA1c level minus vehicle", "setting": "NIDDM mice [3]; R-VMP 15 mg/Kg, bid, day 15", "value": "−2.5"}, {"measurement": "E = D − A, HbA1c level minus vehicle", "setting": "NIDDM mice [3]; R-VMP 15 mg/Kg, bid, day 29", "value": 0.9}, {"measurement": "E = D − A, HbA1c level minus vehicle", "setting": "NIDDM mice [3]; R-VMP 15 mg/Kg, bid, day 43", "value": "−3.8"}, {"measurement": "E = D − A, HbA1c level minus vehicle", "setting": "NIDDM mice [3]; R-VMP 30 mg/Kg, bid, day 15", "value": "−1"}, {"measurement": "E = D − A, HbA1c level minus vehicle", "setting": "NIDDM mice [3]; R-VMP 30 mg/Kg, bid, day 29", "value": 0.1}, {"measurement": "E = D − A, HbA1c level minus vehicle", "setting": "NIDDM mice [3]; R-VMP 30 mg/Kg, bid, day 43", "value": "−12.8"}, {"measurement": "E = D − A, HbA1c level minus vehicle", "setting": "NIDDM mice [3]; R-VMP 50 mg/Kg, bid, day 15", "value": "−4.5"}, {"measurement": "E = D − A, HbA1c level minus vehicle", "setting": "NIDDM mice [3]; R-VMP 50 mg/Kg, bid, day 29", "value": "−3.7"}, {"measurement": "E = D − A, HbA1c level minus vehicle", "setting": "NIDDM mice [3]; R-VMP 50 mg/Kg, bid, day 43", "value": "−10.5"}, {"measurement": "E = D − A, blood glucose level minus vehicle", "setting": "NIDDM mice [4]; R-VMP 15 mg/Kg, bid, day 15", "value": 2.3, "unit": "%"}, {"measurement": "blood glucose level, % of day 0", "setting": "NIDDM mice [4]; R-VMP 15 mg/Kg, bid, day 15", "value": 99.4, "unit": "%"}, {"measurement": "E = D − A, blood glucose level minus vehicle", "setting": "NIDDM mice [4]; R-VMP 15 mg/Kg, bid, day 29", "value": 5.2, "unit": "%"}, {"measurement": "blood glucose level, % of day 0", "setting": "NIDDM mice [4]; R-VMP 15 mg/Kg, bid, day 29", "value": 121.6, "unit": "%"}, {"measurement": "E = D − A, blood glucose level minus vehicle", "setting": "NIDDM mice [4]; R-VMP 15 mg/Kg, bid, day 43", "value": "−6.6", "unit": "%"}, {"measurement": "blood glucose level, % of day 0", "setting": "NIDDM mice [4]; R-VMP 15 mg/Kg, bid, day 43", "value": 115, "unit": "%"}, {"measurement": "E = D − A, blood glucose level minus vehicle", "setting": "NIDDM mice [4]; R-VMP 30 mg/Kg, bid, day 15", "value": "−9.4", "unit": "%"}, {"measurement": "blood glucose level, % of day 0", "setting": "NIDDM mice [4]; R-VMP 30 mg/Kg, bid, day 15", "value": 87.7, "unit": "%"}, {"measurement": "E = D − A, blood glucose level minus vehicle", "setting": "NIDDM mice [4]; R-VMP 30 mg/Kg, bid, day 29", "value": "−12.9", "unit": "%"}, {"measurement": "blood glucose level, % of day 0", "setting": "NIDDM mice [4]; R-VMP 30 mg/Kg, bid, day 29", "value": 103.5, "unit": "%"}, {"measurement": "E = D − A, blood glucose level minus vehicle", "setting": "NIDDM mice [4]; R-VMP 30 mg/Kg, bid, day 43", "value": "−21.9", "unit": "%"}, {"measurement": "blood glucose level, % of day 0", "setting": "NIDDM mice [4]; R-VMP 30 mg/Kg, bid, day 43", "value": 99.7, "unit": "%"}, {"measurement": "E = D − A, blood glucose level minus vehicle", "setting": "NIDDM mice [4]; R-VMP 50 mg/Kg, bid, day 15", "value": "−14.8", "unit": "%"}, {"measurement": "blood glucose level, % of day 0", "setting": "NIDDM mice [4]; R-VMP 50 mg/Kg, bid, day 15", "value": 82.3, "unit": "%"}, {"measurement": "E = D − A, blood glucose level minus vehicle", "setting": "NIDDM mice [4]; R-VMP 50 mg/Kg, bid, day 29", "value": "−22", "unit": "%"}, {"measurement": "blood glucose level, % of day 0", "setting": "NIDDM mice [4]; R-VMP 50 mg/Kg, bid, day 29", "value": 94.4, "unit": "%"}, {"measurement": "E = D − A, blood glucose level minus vehicle", "setting": "NIDDM mice [4]; R-VMP 50 mg/Kg, bid, day 43", "value": "−22.9", "unit": "%"}, {"measurement": "blood glucose level, % of day 0", "setting": "NIDDM mice [4]; R-VMP 50 mg/Kg, bid, day 43", "value": 98.7, "unit": "%"}, {"measurement": "effect on blood glucose levels (FIG. 3)", "setting": "NIDDM mice [4]; higher dose, 30 or 50 mg/Kg, bid", "value": "could reduce the blood glucose levels"}, {"measurement": "effect on blood glucose level on its own", "setting": "NIDDM mice [4]; bid", "value": "possessed no treatment effect"}, {"measurement": "effect on blood glucose level on its own", "setting": "NIDDM mice [4]; bid, listed as R-VPM", "value": "ineffective"}, {"measurement": "effect on fasting blood glucose level compared with control vehicle NIDDM mice (FIG. 2)", "setting": "NIDDM mice [1]; 50 and 75 mg/Kg, bid", "value": "reduced the fasting blood glucose level"}, {"measurement": "potency in reducing the level of fasting blood glucose, compared between enantiomers (FIG. 1)", "setting": "[2]; oral, bid, fasting 12 hrs, days 40 and 50", "value": "relatively more potent than (S)-(−)-verapamil HCl"}, {"measurement": "dose at which the compound alone is effective in reducing blood glucose level", "setting": "[2]; taken together of the findings in the working examples", "value": "≥ 25 mg/Kg, bid"}]}
{"compound": "COc1ccc(CCN(C)CCC[C@@](C#N)(c2ccc(OC)c(OC)c2)C(C)C)cc1OC.Cl", "note": "[S-VPM, (S)-(−)-verapamil HCl]", "values": [{"measurement": "effect on reduction of fasting blood glucose level (FIG. 2)", "setting": "NIDDM mice [1]; dose not printed in the sentence (bid)", "value": "neither racemic verapamil HCl (30 mg/Kg, bid) nor (S)-(−)-verapamil HCl, possessed any effect"}]}
{"compound": "CN(C)C(=N)N=C(N)N", "note": "[metformin, reference compound]", "values": [{"measurement": "effect on HbA1c level (FIG. 4)", "setting": "NIDDM mice [3]; metformin", "value": "significantly reduce HbA1c level"}, {"measurement": "C = B − A, HbA1c level minus vehicle", "setting": "NIDDM mice [3]; day 15", "value": "−5.5"}, {"measurement": "HbA1c level relative to day 0 = 100", "setting": "NIDDM mice [3]; day 15", "value": 114.7}, {"measurement": "C = B − A, HbA1c level minus vehicle", "setting": "NIDDM mice [3]; day 29", "value": "−2.5"}, {"measurement": "HbA1c level relative to day 0 = 100", "setting": "NIDDM mice [3]; day 29", "value": 124.9}, {"measurement": "C = B − A, HbA1c level minus vehicle", "setting": "NIDDM mice [3]; day 43", "value": "−3"}, {"measurement": "HbA1c level relative to day 0 = 100", "setting": "NIDDM mice [3]; day 43", "value": 133}, {"measurement": "C = B − A, blood glucose level minus vehicle", "setting": "NIDDM mice [4]; [5]", "value": "−31.8", "unit": "%"}, {"measurement": "blood glucose level, % of day 0", "setting": "NIDDM mice [4]; [5]", "value": 65.3, "unit": "%"}, {"measurement": "C = B − A, blood glucose level minus vehicle", "setting": "NIDDM mice [4]; [6]", "value": "−12.8", "unit": "%"}, {"measurement": "blood glucose level, % of day 0", "setting": "NIDDM mice [4]; [6]", "value": 103.6, "unit": "%"}, {"measurement": "C = B − A, blood glucose level minus vehicle", "setting": "NIDDM mice [4]; [7]", "value": "−12.8", "unit": "%"}, {"measurement": "blood glucose level, % of day 0", "setting": "NIDDM mice [4]; [7]", "value": 108.8, "unit": "%"}, {"measurement": "reduction of blood glucose level compared with the vehicle group", "setting": "NIDDM mice [4]; day 15", "value": "about 31.8%"}, {"measurement": "reduction of blood glucose level compared with the vehicle group", "setting": "NIDDM mice [4]; day 29", "value": "~12.8", "unit": "%"}, {"measurement": "reduction of blood glucose level compared with the vehicle group", "setting": "NIDDM mice [4]; day 43", "value": "~12.8", "unit": "%"}, {"measurement": "effect on blood glucose levels (FIG. 3)", "setting": "NIDDM mice [4]; metformin, days 15, 29 and 43", "value": "could reduce the blood glucose levels"}, {"measurement": "effect on level of fasting blood glucose (FIG. 2)", "setting": "NIDDM mice [1]; metformin 300 mg/Kg", "value": "reduced the level of fasting blood glucose"}]}
{"compound": "insulin [reference compound]", "values": [{"measurement": "effect on level of non-fasting or fasting blood glucose (FIG. 1)", "setting": "[2]; insulin subcutaneously 90 minutes before measurement", "value": "capable of reducing"}]}
